Results as given in patent publication US9718824B2, “Solid forms comprising 7-(6-(2-hydroxypropan-2-yl)pyridin-3-yl)-1-((trans)-4-methoxycyclohexyl)-3,4-dihydropyrazino[2,3-b]pyrazin-2(1H)-one, and a coformer, compositions and methods of use thereof” (Signal Pharmaceuticals, LLC, priority 2014, dated 2017).

Experiment: Physical stability under accelerated ageing conditions, re-analysis by XRPD and digital imaging
Type: physicochemical
Conditions: 40° C. and 75% RH, 48 hours
Method: AAC: Accelerated aging conditions (48 hours at 40° C. and 75% RH)
Physical stability of all samples was studied by exposing all solids to accelerated ageing conditions (40° C./75% RH for 48 hours) followed by re-analysis by XRPD and digital imaging. After exposure to accelerated ageing conditions, all solids were re-classified on the basis of their new XRPD patterns. The assignment of solid forms was primarily based on the XRPD analysis.
Subsequently, all solids were placed in a climate chamber at 40° C. and 75% RH for […] and again analyzed by XRPD and digital imaging.
Compound 1 free base was solid dosed in 1.8 mL scale experimental vials. The coformer was added at a ratio of 1:1.1 (Compound 1:coformer). The solvent and a stirring bar were added to the vials. […] After the solids were separated from the liquids, the solids were analyzed wet by XRPD and digital imaging. […] The solids obtained were then analyzed by XRPD and digital imaging. Subsequently, the solids were incubated in a climate chamber at 40° C. and 75% RH for 48 hours and again analyzed by XRPD and digital imaging.
In these experiments 4 coformers and 6 solvents were tested (see Table 10). […] All obtained solids were then analyzed by XRPD and digital imaging. Subsequently, the solids were placed in a climate chamber at 40° C. and 75% RH for 3 days after which they were analyzed by XRPD and digital imaging again. […]

- Physical stability at accelerated aging conditions (solid form by XRPD): stable
Structure (SMILES): COC1CCC(N2C(=O)CNc3ncc(-c4ccc(C(C)(C)O)nc4)nc32)CC1.O=C(O)C=CC(=O)O (stereo not shown) [Form 1]
